Results taken from ChEMBL document CHEMBL5579899, “Discovery and In Vivo Exploration of 1,3,4-Oxadiazole and α-Fluoroacrylate Containing IL-17 Inhibitors” (J Med Chem, 2024).
Values after ≈ are worked out from the molar mass of the structure shown.

Columns and labels:
[1] = Plasma protein binding in mouse assessed as unbound fraction; type: ADME, cell-free
[2] = Apparent permeability coefficient of the compound across apical to basolateral side in dog MDCK cells by high-throughput analysis; type: ADME, cell-based, Canis lupus familiaris
[3] = AUC in Sprague-Dawley rat at 3 mg/kg,po measured upto 24 hrs by LC-MS/MS analysis; type: ADME, organism-based; conditions: in vivo, po, 3 mg/kg, 24 h
[4] = AUClast in Beagle dog at 0.3 mg/kg,po measured upto 24 hrs by LC-MS/MS analysis; type: ADME, organism-based, Canis lupus familiaris; conditions: in vivo
Rattus norvegicus [5] = assay: Antiarthritic activity in antigen-induced arthritis Lewis rat model assessed as reduction in knee swelling at 30 mg/kg,po bid administrated for 4 days; type: functional; parameters: scale not given: the % may be the effect or the level left; conditions: time 4 day
[6] = Testicular toxicity in dog >=75 mg/kg administration for 2 weeks; type: organism-based, Canis lupus familiaris; conditions: in vivo, 336 h
Rattus norvegicus [7] = assay: Antiarthritic activity in antigen-induced arthritis Lewis rat model assessed as reduction in knee swelling at po bid administrated for 4 days; type: functional, organism-based; conditions: time 4.0 day
Rattus norvegicus [8] = assay: Antiarthritic activity in antigen-induced arthritis Lewis rat model assessed as reduction in knee swelling at 1 mg/kg,po bid administrated for 4 days; type: functional; parameters: scale not given: the % may be the effect or the level left; conditions: time 4 day
[9] = Inhibition of CXCL1 production in IL-17A stimulated rat IEC-6 cells; type: functional
[10] = Oral bioavailability in Sprague-Dawley rat at 3 mg/kg measured upto 24 hrs by LC-MS/MS analysis; type: ADME, organism-based; conditions: in vivo, po, 3 mg/kg, 24 h
[11] = Plasma protein binding in dog assessed as unbound fraction; type: ADME, cell-free, Canis lupus familiaris
[12] = Oral bioavailability in C57BL/6 mouse at 3 mg/kg measured upto 24 hrs by LC-MS/MS analysis; type: ADME, organism-based; conditions: in vivo
[13] = Toxicity in dog assessed as morphological change in liver at 200 mg/kg administrated for 2 weeks; type: organism-based, Canis lupus familiaris; conditions: in vivo, 336 h
[14] = Inhibition of biotinylated human IL-17A/AF647-labeled human IL-17RA protein-protein interaction preincubated for 30 mins with compound followed by addition of AF647-labeled human IL-17RA incubated for 90 min by TR-FRET assay
[15] = Half life in C57BL/6 mouse at 1 mg/kg,iv or 3 mg/kg,po measured upto 24 hrs by LC-MS/MS analysis; type: ADME, organism-based; conditions: in vivo
[16] = Metabolic stability in dog liver microsomes assessed as intrinsic clearance; type: ADME, Canis lupus familiaris, Microsome; conditions: read-out: CLH
[17] = Volume of distribution at steady state in Beagle dog at 0.1 mg/kg,iv or 0.3 mg/kg,po measured upto 24 hrs by LC-MS/MS analysis; type: ADME, organism-based, Canis lupus familiaris; conditions: in vivo, read-out: Vdss
[18] = Oral bioavailability in Beagle dog at 0.3 mg/kg measured upto 24 hrs by LC-MS/MS analysis; type: ADME, organism-based, Canis lupus familiaris; conditions: in vivo
[19] = Inhibition of CXCL1 production in IL-17A stimulated rat IEC-6 cells assessed as fold change in inhibition of CXCL1 release; type: functional
[20] = Equilibrium solubility of compound […] at pH 6.8 by high-throughput analysis; type: physicochemical
[21] = Volume of distribution at steady state in Sprague-Dawley rat at 1 mg/kg,iv or 3 mg/kg,po measured upto 24 hrs by LC-MS/MS analysis; type: ADME, organism-based; conditions: in vivo, read-out: Vdss
[22] = GSH reactivity in aqueous buffer at pH 7.4 assessed as GSH-adduct formation by measuring half life; type: physicochemical
[23] = Toxicity in dog at >=200 mg/kg,administrated for 2 weeks; type: organism-based, Canis lupus familiaris; conditions: in vivo, 336 h
[24] = Metabolic stability in human hepatocyte assessed as clearance measured per million cells; type: ADME, cell-based; conditions: hepatocytes
[25] = Metabolic stability in dog hepatocyte assessed as clearance measured per million cells; type: ADME, cell-based, Canis lupus familiaris; conditions: hepatocytes
[26] = Metabolic stability in mouse liver microsomes assessed as intrinsic clearance; type: ADME, Microsome; conditions: read-out: CLH
Bile salt export pump = Bile salt export pump (Homo sapiens, UniProt O95342); assay: Inhibition of BSEP (unknown origin); type: toxicity
[27] = Metabolic stability in rat hepatocyte assessed as clearance measured per million cells; type: ADME, cell-based; conditions: hepatocytes
[28] = Inhibition of IL-6 production in IL-17/TNF-alpha stimulated human NHDF cells incubated for 24 hrs by ELISA; type: functional, cell-based
[29] = Plasma protein binding in rat assessed as unbound fraction; type: ADME, cell-free
[30] = biological target: T1, Muscarinic acetylcholine receptor M2 (Homo sapiens, UniProt P08172); assay: Inhibition of muscarinic M2 receptor (unknown origin); type: toxicity
T1 sequence (P08172 whole entry): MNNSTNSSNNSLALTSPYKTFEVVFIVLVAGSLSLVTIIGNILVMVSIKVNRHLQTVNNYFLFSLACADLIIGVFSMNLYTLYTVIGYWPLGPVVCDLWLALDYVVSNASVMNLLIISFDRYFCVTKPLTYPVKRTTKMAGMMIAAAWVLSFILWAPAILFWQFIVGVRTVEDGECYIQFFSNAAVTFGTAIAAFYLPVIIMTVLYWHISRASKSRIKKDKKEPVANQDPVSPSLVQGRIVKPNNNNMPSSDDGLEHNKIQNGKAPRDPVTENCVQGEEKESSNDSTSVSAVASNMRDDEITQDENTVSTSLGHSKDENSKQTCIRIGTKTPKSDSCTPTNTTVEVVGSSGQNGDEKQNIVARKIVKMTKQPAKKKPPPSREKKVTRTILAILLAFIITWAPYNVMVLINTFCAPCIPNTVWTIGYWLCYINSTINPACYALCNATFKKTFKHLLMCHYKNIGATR

[31] = Half life in Sprague-Dawley rat at 1 mg/kg,iv or 3 mg/kg,po measured upto 24 hrs by LC-MS/MS analysis; type: ADME, organism-based; conditions: in vivo
[32] = Plasma protein binding in human assessed as unbound fraction; type: ADME, cell-free
[33] = Metabolic stability in rat liver microsomes assessed as intrinsic clearance; type: ADME, Microsome; conditions: read-out: CLH
[34] = Half life in Beagle dog at 0.1 mg/kg,iv or 0.3 mg/kg,po measured upto 24 hrs by LC-MS/MS analysis; type: ADME, organism-based, Canis lupus familiaris; conditions: in vivo
[35] = Toxicity in dog assessed as maximal tolerated dose administrated for 2 weeks; parameters: species or system Canis lupus familiaris; conditions: in vivo
[36] = Volume of distribution at steady state in C57BL/6 mouse at 1 mg/kg,iv or 3 mg/kg,po measured upto 24 hrs by LC-MS/MS analysis; type: ADME, organism-based; conditions: in vivo, read-out: Vdss
[37] = Testicular toxicity in rat at >=100 mg/kg administration for 2 weeks; type: organism-based; conditions: in vivo, 336 h
[38] = biological target: T2, Solute carrier organic anion transporter family member 1B1 (Homo sapiens, UniProt Q9Y6L6); assay: Inhibition of OATP1B1 (unknown origin); type: toxicity
T2 sequence (Q9Y6L6 whole entry): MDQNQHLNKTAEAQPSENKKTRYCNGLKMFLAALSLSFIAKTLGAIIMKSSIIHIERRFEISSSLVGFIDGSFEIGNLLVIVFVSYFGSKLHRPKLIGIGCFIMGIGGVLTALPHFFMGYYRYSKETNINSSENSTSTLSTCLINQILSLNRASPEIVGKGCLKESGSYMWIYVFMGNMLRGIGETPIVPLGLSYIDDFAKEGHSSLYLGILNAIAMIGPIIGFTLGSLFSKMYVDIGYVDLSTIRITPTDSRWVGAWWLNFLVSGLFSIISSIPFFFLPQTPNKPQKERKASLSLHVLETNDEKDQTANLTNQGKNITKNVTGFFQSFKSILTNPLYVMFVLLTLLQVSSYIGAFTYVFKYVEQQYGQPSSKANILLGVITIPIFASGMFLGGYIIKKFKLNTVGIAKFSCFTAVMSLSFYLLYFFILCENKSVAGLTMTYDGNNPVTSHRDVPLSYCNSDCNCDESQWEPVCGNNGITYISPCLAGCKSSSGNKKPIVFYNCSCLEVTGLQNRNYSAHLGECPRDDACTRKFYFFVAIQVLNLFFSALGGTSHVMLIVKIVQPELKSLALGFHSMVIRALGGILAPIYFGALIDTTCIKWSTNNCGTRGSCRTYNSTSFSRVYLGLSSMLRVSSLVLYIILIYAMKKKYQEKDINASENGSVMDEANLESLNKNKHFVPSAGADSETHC

[39] = Metabolic stability in human liver microsomes assessed as intrinsic clearance; type: ADME, Microsome; conditions: read-out: CLH
[40] = AUClast in C57BL/6 mouse at 3 mg/kg,po measured upto 24 hrs by LC-MS/MS analysis; type: ADME, organism-based; conditions: in vivo
[41] = Toxicity in dog assessed as increase in serum liver enzyme at 200 mg/kg administrated for 2 weeks; type: organism-based, Canis lupus familiaris; conditions: in vivo, 336 h
[42] = Toxicity in rat assessed as maximal tolerated dose administrated for 2 weeks; conditions: in vivo
[43] = Lipophilicity, logD of compound at pH 7.4; type: physicochemical; conditions: buffer
[44] = AUClast in Sprague-Dawley rat at 3 mg/kg,po measured upto 24 hrs by LC-MS/MS analysis; type: ADME, organism-based; conditions: in vivo

Chain of Bile salt export pump (O95342 whole entry): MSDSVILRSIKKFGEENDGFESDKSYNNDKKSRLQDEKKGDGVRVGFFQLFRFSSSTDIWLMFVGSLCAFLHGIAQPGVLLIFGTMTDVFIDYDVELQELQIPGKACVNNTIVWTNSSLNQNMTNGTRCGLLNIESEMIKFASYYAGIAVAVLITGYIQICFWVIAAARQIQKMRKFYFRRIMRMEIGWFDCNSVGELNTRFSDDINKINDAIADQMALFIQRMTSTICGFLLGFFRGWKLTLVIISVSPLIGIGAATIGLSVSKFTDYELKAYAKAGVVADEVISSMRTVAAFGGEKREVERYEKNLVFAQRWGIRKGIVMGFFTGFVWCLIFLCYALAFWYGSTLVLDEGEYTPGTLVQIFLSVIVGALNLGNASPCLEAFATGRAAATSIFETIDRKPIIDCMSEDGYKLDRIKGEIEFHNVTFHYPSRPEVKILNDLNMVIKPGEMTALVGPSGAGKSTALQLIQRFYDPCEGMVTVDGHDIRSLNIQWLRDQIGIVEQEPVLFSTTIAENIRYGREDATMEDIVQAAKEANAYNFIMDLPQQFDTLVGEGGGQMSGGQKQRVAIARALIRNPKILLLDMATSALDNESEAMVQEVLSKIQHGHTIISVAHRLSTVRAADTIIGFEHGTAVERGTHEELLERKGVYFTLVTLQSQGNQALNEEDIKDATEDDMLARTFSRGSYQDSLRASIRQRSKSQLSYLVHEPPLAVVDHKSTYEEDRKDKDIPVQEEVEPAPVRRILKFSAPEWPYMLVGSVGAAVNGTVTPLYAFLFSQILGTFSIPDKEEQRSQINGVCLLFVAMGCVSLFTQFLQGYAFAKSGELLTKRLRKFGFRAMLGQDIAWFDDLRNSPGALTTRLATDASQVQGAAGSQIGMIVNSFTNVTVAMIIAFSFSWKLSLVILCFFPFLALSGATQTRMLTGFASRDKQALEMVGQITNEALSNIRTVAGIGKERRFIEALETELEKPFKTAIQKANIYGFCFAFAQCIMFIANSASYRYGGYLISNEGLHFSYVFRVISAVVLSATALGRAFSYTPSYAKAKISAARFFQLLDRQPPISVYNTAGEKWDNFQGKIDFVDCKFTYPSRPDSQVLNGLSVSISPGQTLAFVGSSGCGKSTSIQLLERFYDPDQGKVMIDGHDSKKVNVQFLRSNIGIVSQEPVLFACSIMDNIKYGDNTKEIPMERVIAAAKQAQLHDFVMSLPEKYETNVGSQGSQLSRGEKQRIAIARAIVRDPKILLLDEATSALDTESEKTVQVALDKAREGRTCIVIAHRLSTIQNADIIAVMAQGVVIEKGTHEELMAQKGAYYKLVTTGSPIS

Compound: COC[C@H](c1cnn2cc([C@@H](NC(=O)/C(F)=C\C3CC3)C3CCC(F)(F)CC3)nc2c1)N1C[C@@H](C(F)(F)F)NC1=O
- fraction unbound [1]: 0.048
- Papp A→B [2]: 26 ×10⁻⁶ cm/s
- AUC [3]: 0.024 µM·h
- AUClast [4]: 4.2 µM·h
- Activity (Rattus norvegicus [5]): 97%
- Activity [6]: Toxic
- Activity (Rattus norvegicus [7]): Dose-Dependent Effect
- Activity (Rattus norvegicus [8]): 60%
- IC90 [9]: 45 nM
- F [10]: 106%
- fraction unbound [11]: 0.062
- F [12]: 41%
- Activity [13]: Toxic
- IC50 [14]: 13 nM
- half-life [15]: 2 h
- microsomal CLint [16]: 18 µL/min/mg
- Vd [17]: 3.7 L/kg
- F [18]: 94%
- fold change (FC) [19]: 9
- solubility [20]: 150 µM (≈ 88.3 µg/mL)
- Vd [21]: 4.4 L/kg
- t1/2 [22]: > 8 h
- Activity [23]: Non-Toxic
- CLH [24]: 58 µL
- CLH [25]: 5.1 µL
- microsomal CLint [26]: 25 µL/min/mg
- IC50 (Bile salt export pump): 19000 nM
- CLH [27]: 4.2 µL
- IC50 ([28]; 24 h): 4 nM
- IC90 ([28]; time 24 hrs): 37 nM
- fraction unbound [29]: 0.075
- IC50 [30]: 14000 nM
- half-life [31]: 2.6 h
- fraction unbound [32]: 0.094
- microsomal CLint [33]: 38 µL/min/mg
- half-life [34]: 8.3 h
- MTD at 336 h [35]: 75 mg/kg
- Vd [36]: 3 L/kg
- Activity [37]: Toxic
- IC50 [38]: 11000 nM
- microsomal CLint [39]: 58 µL/min/mg
- AUClast [40]: 0.53 µM·h
- Activity [41]: Toxic
- MTD at 336 h [42]: 1000 mg/kg
- logD [43]: 3.8
- AUC(0-t) at 24 h [44]: 1.58 µM·h
